From patent US20210253568A1, “AZAINDOLE DERIVATIVES AS RHO-KINASE INHIBITORS” (CHIESI FARMACEUTICI S.p.A., priority 2018, published 2021)

Experiments:
ROCK 1 = ROCK 1 (Homo sapiens, UniProt Q13464); assay: In vitro Rho kinase inhibitory activity assay (ADP-Glo), Rho kinase 1; assay type: biochemical; details: Ki by Cheng-Prusoff from IC50; 10 μM ATP, 25° C., expressed as range of activity
Procedure: (§1) The effectiveness of compounds of the present invention to inhibit Rho kinase activity can be determined in a 10 μl assay containing 40 mM Tris pH7.5, 20 mM MgCl2 0.1 mg/mi BSA, 50 μM DTT and 2.5 μM peptide substrate (Myelin Basic Protein) using an ADP-Glo kit (Promega). Compounds were dissolved in DMSO such that the final concentration of DMSO was 1% in the assay. All reactions/incubations are performed at 25° C. Compound (2 ul) and either Rho kinase 1 or 2 (4 μl) were mixed and incubated for 30 mins. Reactions were initiated by addition of ATP (4 μl) such that the final concentration of ATP in the assay was 10 μM. After a 1 hour incubation 10 μl of ADP-Glo Reagent was added and after a further 45 minute incubation 20 ul of Kinase Detection Buffer was added and the mixture incubated for a further 30 minutes. The luminescent signal was measured on a luminometer. […] Compounds were tested in dose-response format and the inhibition of kinase activity was calculated at each concentration of compound. To determine the IC50 (concentration of compound required to inhibit 50% of the enzyme activity) data were fit to a plot of % inhibition vs Log10 compound concentration using a sigmoidal fit with a variable slope and fixing the maximum to 100% and the minimum to 0%. To determine the Ki values the Cheng-Prusoff equation was utilized (Ki=IC50/(1+[S]/Km).

ROCK 2 = ROCK 2 (Homo sapiens, UniProt O75116); assay: In vitro Rho kinase inhibitory activity assay (ADP-Glo), Rho kinase 2; assay type: biochemical; details: Ki by Cheng-Prusoff from IC50; 10 μM ATP, 25° C., expressed as range of activity
Procedure: as §1

ROCK 2, sequence (O75116 whole entry): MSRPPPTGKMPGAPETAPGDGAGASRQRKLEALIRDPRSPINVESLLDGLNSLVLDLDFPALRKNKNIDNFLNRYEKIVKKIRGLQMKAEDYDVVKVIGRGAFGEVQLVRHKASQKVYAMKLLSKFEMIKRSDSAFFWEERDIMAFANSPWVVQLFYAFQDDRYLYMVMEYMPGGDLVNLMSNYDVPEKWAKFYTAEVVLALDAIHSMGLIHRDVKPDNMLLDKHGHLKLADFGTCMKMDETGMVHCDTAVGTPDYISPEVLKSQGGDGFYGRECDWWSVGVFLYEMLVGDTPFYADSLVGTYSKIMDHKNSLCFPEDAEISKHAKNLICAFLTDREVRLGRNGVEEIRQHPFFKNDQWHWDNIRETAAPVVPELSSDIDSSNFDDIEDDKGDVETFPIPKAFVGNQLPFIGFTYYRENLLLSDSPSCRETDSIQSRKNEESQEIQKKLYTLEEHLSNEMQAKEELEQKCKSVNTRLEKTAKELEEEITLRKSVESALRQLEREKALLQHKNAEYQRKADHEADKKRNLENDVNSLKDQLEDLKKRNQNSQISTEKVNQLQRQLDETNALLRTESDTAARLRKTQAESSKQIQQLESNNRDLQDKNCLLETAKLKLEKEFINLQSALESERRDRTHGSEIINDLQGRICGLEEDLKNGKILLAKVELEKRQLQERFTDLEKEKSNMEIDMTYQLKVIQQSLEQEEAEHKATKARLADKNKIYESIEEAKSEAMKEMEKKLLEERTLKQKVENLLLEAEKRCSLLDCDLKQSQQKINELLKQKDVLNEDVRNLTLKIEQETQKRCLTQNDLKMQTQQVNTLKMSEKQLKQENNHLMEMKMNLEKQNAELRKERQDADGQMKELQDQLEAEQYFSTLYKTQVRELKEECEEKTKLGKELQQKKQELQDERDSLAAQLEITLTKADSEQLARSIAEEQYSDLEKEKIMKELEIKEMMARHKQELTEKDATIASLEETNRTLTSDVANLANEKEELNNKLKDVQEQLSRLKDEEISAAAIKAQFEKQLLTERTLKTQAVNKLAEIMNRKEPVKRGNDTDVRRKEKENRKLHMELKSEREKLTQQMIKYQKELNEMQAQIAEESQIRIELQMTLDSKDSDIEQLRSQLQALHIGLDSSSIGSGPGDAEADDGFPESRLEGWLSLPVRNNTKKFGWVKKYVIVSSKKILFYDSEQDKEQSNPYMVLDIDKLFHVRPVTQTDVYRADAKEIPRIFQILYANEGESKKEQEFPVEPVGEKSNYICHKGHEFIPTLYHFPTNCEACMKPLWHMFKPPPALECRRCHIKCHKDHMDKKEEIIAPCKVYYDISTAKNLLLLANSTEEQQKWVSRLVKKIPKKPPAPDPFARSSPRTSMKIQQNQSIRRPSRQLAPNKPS
ROCK 1, sequence (Q13464 whole entry): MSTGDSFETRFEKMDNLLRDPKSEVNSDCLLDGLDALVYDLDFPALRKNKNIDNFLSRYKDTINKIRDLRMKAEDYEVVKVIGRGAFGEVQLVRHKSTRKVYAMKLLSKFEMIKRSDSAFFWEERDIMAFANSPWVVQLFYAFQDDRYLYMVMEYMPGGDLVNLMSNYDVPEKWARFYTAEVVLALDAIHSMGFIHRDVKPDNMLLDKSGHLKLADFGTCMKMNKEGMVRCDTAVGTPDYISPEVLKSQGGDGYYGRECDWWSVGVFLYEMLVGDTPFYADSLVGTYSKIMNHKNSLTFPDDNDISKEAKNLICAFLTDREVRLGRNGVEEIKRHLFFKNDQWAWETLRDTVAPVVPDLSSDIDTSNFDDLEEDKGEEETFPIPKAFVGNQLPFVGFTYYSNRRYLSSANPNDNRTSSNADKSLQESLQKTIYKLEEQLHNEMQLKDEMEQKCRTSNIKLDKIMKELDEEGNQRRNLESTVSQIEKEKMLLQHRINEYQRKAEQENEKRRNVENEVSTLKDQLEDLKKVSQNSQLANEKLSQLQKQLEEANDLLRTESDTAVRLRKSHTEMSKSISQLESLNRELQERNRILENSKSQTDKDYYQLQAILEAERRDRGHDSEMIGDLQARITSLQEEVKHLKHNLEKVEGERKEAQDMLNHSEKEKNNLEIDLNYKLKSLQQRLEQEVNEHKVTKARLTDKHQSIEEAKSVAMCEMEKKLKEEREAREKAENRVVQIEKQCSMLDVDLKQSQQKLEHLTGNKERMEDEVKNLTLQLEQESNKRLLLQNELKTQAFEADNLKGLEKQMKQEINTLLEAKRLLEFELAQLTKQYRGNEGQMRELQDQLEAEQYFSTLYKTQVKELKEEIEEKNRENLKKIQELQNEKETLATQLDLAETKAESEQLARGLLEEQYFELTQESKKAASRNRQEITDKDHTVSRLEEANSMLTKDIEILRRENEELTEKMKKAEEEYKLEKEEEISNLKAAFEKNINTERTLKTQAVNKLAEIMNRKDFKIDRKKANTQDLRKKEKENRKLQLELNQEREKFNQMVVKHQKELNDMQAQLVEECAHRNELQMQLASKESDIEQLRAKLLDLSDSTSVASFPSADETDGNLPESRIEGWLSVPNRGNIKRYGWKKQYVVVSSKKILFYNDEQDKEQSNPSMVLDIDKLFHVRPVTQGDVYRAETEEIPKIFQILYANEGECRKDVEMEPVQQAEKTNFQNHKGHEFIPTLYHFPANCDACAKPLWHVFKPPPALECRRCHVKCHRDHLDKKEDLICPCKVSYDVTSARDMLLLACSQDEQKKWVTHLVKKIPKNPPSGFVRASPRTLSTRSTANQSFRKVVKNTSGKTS

Row | Ki (ROCK 1) | Ki (ROCK 2) | SMILES
1 | < 3 nM | < 3 nM | CC(C)OCC(=O)Nc1cc(-c2c[nH]c3nccc(Oc4ccc5c(c4)CNCC5)c23)ccn1 [Example 42, 2-isopropoxy-N-(4-(4-((1,2,3,4-tetrahydroisoquinolin-7-yl)oxy)-1H-pyrrolo[2,3-b]pyridin-3-yl)pyridin-2-yl)acetamide]
2 | < 3 nM | < 3 nM | O=C(CN1CCCCC1)Nc1cc(-c2c[nH]c3nccc(Oc4ccc5c(c4)CNCC5)c23)ccn1 [Example 43, 2-(piperidin-1-yl)-N-(4-(4-((1,2,3,4-tetrahydroisoquinolin-7-yl)oxy)-1H-pyrrolo[2,3-b]pyridin-3-yl)pyridin-2-yl)acetamide]
3 | 3 to 30 nM | < 3 nM | CC1(C(=O)Nc2cc(-c3c[nH]c4nccc(Oc5ccc6c(c5)CNCC6)c34)ccn2)CC1 [Example 44, 1-methyl-N-(4-(4-((1,2,3,4-tetrahydroisoquinolin-7-yl)oxy)-1H-pyrrolo[2,3-b]pyridin-3-yl)pyridin-2-yl)cyclopropanecarboxamide]
4 | < 3 nM | < 3 nM | NC(C(=O)Nc1cc(-c2c[nH]c3nccc(Oc4ccc5c(c4)CNCC5)c23)ccn1)c1ccccc1 (stereo not drawn) [Example 45, 2-amino-2-phenyl-N-(4-(4-((1,2,3,4-tetrahydroisoquinolin-7-yl)oxy)-1H-pyrrolo[2,3-b]pyridin-3-yl)pyridin-2-yl)acetamide]
5 | 3 to 30 nM | < 3 nM | CC1(C)CCN(C(=O)Nc2cc(-c3c[nH]c4nccc(Oc5ccc6c(c5)CNCC6)c34)ccn2)CC1 [Example 46, 4,4-dimethyl-N-(4-(4-((1,2,3,4-tetrahydroisoquinolin-7-yl)oxy)-1H-pyrrolo[2,3-b]pyridin-3-yl)pyridin-2-yl)piperidine-1-carboxamide]
6 | < 3 nM | < 3 nM | CN(C(=O)Nc1cc(-c2c[nH]c3nccc(Oc4ccc5c(c4)CNCC5)c23)ccn1)C1CCCCC1 [Example 47, 1-cyclohexyl-1-methyl-3-(4-(4-((1,2,3,4-tetrahydroisoquinolin-7-yl)oxy)-1H-pyrrolo[2,3-b]pyridin-3-yl)pyridin-2-yl)urea]
7 | 3 to 30 nM | < 3 nM | CN(C(=O)Nc1cc(-c2c[nH]c3nccc(Oc4ccc5c(c4)CNCC5)c23)ccn1)C1CCOCC1 [Example 48, 1-methyl-1-(tetrahydro-2H-pyran-4-yl)-3-(4-(4-((1,2,3,4-tetrahydroisoquinolin-7-yl)oxy)-1H-pyrrolo[2,3-b]pyridin-3-yl)pyridin-2-yl)urea]
8 | > 30 nM | > 30 nM | c1ccc(CNc2cc(-c3c[nH]c4nccc(Oc5cnc6c(c5)CNCC6)c34)ccn2)cc1 [Example 49, N-benzyl-4-(4-((5,6,7,8-tetrahydro-1,6-naphthyridin-3-yl)oxy)-1H-pyrrolo[2,3-b]pyridin-3-yl)pyridin-2-amine]
9 | 3 to 30 nM | < 3 nM | O=C(Nc1cc(-c2c[nH]c3nccc(Oc4ccc5c(c4)CNCC5)c23)ncn1)c1ccccc1 [Example 50, N-(6-(4-((1,2,3,4-tetrahydroisoquinolin-7-yl)oxy)-1H-pyrrolo[2,3-b]pyridin-3-yl)pyrimidin-4-yl)benzamide]
10 | 3 to 30 nM | < 3 nM | c1ccc(CNc2cncc(-c3c[nH]c4nccc(Oc5ccc6c(c5)CNCC6)c34)c2)cc1 [Example 51, N-benzyl-5-(4-((1,2,3,4-tetrahydroisoquinolin-7-yl)oxy)-1H-pyrrolo[2,3-b]pyridin-3-yl)pyridin-3-amine]
11 | < 3 nM | < 3 nM | C[C@@H](Nc1cc(-c2c[nH]c3nccc(Oc4ccc5c(c4)CNCC5)c23)ncn1)c1ccccc1 [Example 52, (R)-N-(1-phenylethyl)-6-(4-((1,2,3,4-tetrahydroisoquinolin-7-yl)oxy)-1H-pyrrolo[2,3-b]pyridin-3-yl)pyrimidin-4-amine]
12 | < 3 nM | < 3 nM | c1ccc(CCNc2cc(-c3c[nH]c4nccc(Oc5ccc6c(c5)CNCC6)c34)ncn2)cc1 [Example 53, N-phenethyl-6-(4-((1,2,3,4-tetrahydroisoquinolin-7-yl)oxy)-1H-pyrrolo[2,3-b]pyridin-3-yl)pyrimidin-4-amine]
